The source of these data is ChEMBL document CHEMBL4118122, “Identification and biological evaluation of thiazole-based inverse agonists of RORγt” (Bioorg Med Chem Lett, 2018).

One data set deals with T1, Cytochrome P450 1A2 (Homo sapiens, UniProt P05177).
T1 sequence (P05177 whole entry): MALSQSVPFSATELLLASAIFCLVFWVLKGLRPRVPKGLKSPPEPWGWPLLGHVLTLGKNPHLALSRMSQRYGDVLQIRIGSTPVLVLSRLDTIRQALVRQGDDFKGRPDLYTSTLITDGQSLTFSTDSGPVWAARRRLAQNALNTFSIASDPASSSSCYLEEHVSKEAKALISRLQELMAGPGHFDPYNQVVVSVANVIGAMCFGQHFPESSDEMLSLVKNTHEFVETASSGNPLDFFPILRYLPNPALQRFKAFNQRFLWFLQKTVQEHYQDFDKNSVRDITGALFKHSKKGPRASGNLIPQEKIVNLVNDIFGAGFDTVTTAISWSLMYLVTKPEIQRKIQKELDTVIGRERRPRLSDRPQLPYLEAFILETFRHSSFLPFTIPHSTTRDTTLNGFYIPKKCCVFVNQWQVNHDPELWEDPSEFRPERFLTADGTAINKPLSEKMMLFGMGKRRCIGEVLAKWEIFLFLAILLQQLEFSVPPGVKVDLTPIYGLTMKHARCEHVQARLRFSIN
Nature of the data set: Inhibition of CYP1A2 (unknown origin). It counts as ADME.

For the next data set, the target named is Cytochrome P450 2C19 (Homo sapiens, UniProt P33261). Description: Inhibition of CYP2C19 (unknown origin). It is filed as ADME.
Chain of Cytochrome P450 2C19 (P33261 whole entry): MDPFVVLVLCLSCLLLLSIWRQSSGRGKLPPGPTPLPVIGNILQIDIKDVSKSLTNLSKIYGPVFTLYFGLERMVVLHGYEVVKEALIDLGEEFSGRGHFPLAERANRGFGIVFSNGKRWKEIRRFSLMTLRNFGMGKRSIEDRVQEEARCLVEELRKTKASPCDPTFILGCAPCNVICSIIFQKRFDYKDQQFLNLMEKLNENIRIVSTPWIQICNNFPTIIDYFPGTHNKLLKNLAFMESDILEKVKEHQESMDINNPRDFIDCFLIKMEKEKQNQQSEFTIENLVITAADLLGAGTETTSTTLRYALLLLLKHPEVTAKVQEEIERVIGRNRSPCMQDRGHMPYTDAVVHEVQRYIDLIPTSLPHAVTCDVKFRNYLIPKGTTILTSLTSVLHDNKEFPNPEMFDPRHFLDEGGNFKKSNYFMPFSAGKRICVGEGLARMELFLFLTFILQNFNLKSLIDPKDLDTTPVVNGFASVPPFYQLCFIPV
Data set [1] deals with Voltage-gated inwardly rectifying potassium channel KCNH2 (Homo sapiens, UniProt Q12809). Nature of the data set: Inhibition of human ERG.
Chain of Voltage-gated inwardly rectifying potassium channel KCNH2 (Q12809 whole entry): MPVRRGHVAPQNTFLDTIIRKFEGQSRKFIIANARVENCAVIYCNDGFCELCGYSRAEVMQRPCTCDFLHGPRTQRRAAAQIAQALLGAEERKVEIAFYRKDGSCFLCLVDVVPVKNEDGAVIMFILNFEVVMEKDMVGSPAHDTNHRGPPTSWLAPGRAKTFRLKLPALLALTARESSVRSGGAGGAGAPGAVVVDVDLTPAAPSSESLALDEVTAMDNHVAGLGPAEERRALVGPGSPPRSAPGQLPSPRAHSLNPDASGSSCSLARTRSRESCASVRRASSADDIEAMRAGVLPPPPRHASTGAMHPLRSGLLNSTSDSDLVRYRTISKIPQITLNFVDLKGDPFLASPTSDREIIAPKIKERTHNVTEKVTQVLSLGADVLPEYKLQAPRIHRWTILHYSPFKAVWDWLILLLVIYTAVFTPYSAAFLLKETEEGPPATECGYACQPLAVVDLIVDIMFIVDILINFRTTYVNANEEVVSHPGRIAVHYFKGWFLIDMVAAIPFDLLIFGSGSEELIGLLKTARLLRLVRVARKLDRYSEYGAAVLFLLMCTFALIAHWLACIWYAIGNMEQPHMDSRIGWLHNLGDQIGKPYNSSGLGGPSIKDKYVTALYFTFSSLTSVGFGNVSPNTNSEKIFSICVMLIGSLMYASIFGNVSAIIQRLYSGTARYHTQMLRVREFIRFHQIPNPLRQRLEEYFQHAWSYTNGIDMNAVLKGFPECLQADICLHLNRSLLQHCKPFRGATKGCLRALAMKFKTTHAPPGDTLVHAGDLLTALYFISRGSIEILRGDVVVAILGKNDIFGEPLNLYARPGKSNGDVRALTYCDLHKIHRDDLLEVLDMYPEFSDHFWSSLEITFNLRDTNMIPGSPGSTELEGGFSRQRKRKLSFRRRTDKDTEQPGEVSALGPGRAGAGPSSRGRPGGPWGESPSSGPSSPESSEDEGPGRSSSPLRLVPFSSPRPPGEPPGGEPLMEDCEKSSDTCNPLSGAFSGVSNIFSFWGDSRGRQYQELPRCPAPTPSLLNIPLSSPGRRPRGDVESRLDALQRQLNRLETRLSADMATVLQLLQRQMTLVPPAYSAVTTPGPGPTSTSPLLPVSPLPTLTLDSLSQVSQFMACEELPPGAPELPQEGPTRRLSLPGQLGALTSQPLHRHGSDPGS
For the next data set, the target named is Cytochrome P450 2C9 (Homo sapiens, UniProt P11712). Description: Inhibition of CYP2C9 (unknown origin). It is filed as ADME.
Chain of Cytochrome P450 2C9 (P11712 whole entry): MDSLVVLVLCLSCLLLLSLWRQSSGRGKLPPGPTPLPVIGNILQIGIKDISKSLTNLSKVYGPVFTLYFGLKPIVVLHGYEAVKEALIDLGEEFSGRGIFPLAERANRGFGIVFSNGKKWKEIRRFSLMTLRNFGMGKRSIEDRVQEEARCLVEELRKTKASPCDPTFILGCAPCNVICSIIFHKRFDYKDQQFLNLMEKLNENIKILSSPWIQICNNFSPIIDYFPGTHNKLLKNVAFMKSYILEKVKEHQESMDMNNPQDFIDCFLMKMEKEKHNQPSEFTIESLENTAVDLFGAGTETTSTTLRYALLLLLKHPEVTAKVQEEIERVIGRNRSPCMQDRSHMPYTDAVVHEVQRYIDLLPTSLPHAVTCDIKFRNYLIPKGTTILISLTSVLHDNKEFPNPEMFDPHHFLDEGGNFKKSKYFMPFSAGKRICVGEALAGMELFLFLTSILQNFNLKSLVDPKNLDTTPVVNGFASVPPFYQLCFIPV
For the next data set, the target named is Cytochrome P450 3A4 (Homo sapiens, UniProt P08684). Description: Inhibition of CYP3A4 (unknown origin). It is filed as ADME.
Chain of Cytochrome P450 3A4 (P08684 whole entry): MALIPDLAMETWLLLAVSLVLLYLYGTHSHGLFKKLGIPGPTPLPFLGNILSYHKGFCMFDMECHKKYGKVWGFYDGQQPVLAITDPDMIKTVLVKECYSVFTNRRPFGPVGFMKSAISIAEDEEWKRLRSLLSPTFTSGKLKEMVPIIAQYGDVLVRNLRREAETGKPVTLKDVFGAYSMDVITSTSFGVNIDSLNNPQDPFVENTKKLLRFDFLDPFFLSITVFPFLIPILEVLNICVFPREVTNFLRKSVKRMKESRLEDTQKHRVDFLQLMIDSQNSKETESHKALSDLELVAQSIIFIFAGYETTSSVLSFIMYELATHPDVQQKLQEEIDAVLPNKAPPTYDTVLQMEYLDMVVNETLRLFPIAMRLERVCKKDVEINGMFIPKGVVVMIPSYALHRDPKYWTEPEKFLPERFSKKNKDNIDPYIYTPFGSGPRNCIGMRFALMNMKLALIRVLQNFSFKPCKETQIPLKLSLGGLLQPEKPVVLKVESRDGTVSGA
The nature of data set [2]: Half life in rat microsomes. It counts as ADME, Microsome.
The nature of data set [3]: Thermodynamic solubility of the compound in 30 mM phosphate buffer at 10 mM at pH 7 after 2 to 5 days by UV-HPLC analysis. It counts as physicochemical. Conditions: read-out: Therm_solubility; call rule not given here.
The target in another data set is T2, Cytochrome P450 2C8 (Homo sapiens, UniProt P10632).
T2 sequence (P10632 whole entry): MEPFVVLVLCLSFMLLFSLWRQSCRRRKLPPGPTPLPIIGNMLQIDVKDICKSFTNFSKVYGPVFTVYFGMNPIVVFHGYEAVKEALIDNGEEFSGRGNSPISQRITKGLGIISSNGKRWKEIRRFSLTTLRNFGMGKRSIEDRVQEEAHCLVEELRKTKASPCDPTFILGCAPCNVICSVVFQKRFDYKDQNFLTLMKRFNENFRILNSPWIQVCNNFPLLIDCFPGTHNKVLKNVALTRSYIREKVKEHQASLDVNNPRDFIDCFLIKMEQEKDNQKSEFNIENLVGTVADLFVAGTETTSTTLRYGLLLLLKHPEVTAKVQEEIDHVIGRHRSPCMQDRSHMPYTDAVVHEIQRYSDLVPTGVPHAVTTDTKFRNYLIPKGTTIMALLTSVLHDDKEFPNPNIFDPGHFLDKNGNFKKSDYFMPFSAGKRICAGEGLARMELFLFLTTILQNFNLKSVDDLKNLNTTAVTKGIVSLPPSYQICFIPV
Nature of the data set: Inhibition of CYP2C8 (unknown origin). It is filed as ADME.

Data set [4] can be described thus: Half life in human microsomes. It counts as ADME, Microsome.
The target of the next data set is Cytochrome P450 2D6 (Homo sapiens, UniProt P10635). Nature of the data set: Inhibition of CYP2D6 (unknown origin). It is filed as ADME.
Chain of Cytochrome P450 2D6 (P10635 whole entry): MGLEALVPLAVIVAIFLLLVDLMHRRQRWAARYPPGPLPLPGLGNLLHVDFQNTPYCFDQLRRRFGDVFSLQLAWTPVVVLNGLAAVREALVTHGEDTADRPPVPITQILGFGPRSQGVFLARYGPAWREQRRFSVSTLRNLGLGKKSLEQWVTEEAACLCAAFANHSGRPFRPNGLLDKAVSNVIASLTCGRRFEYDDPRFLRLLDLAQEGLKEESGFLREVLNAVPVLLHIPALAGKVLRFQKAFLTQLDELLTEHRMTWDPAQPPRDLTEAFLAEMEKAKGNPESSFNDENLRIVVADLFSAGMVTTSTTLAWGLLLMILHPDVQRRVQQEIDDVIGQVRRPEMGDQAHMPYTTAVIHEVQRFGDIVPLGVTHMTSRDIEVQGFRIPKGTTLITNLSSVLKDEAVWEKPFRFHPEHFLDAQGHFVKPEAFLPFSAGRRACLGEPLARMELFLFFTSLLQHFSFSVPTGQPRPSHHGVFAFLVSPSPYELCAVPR
Data set [5] is described as follows: Initial plasma concentration in Sprague-Dawley rat at 0.5 mg/kg, iv. It is filed as ADME, organism-based.
Data set [6] in a line: Cmax in Sprague-Dawley rat at 2.5 mg/kg, po. The following applies: in vivo. More on the design: dose 2.5 mg/kg, route oral. It is filed as ADME, organism-based.
A short description of data set [7]: Half life in Sprague-Dawley rat at 0.5 mg/kg, iv. It is filed as ADME, organism-based. Conditions: in vivo.
A short description of data set [8]: Volume of distribution at steady state in Sprague-Dawley rat at 0.5 mg/kg, iv. It is filed as ADME, organism-based. Conditions: in vivo, read-out: Vdss.
The target of data set [9] is T3, PXR (NR1I2) (Homo sapiens, UniProt O75469).
T3 sequence (O75469 whole entry): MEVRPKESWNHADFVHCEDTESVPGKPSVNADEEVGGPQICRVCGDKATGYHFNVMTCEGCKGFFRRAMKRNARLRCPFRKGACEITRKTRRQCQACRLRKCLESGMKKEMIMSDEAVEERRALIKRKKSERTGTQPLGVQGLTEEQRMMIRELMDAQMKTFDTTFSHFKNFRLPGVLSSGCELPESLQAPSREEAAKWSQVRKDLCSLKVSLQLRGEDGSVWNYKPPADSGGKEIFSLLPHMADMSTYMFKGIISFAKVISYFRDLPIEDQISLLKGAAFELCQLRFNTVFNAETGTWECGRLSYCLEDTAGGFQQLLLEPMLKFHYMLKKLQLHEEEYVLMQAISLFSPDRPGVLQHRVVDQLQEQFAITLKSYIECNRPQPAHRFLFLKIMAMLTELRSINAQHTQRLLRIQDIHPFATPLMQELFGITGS
Nature of the data set: […] at PXR LBD (unknown origin) expressed in HEK293 cells […] at 10 uM after 16 hrs by luciferase reporter gene assay relative to rifampicin. It counts as ADME, cell-based. Conditions: HEK293 cells expressing PXR LBD, read-out: Efficacy. For orientation: Reporter assays use an easily measured gene product as a stand-in for the process of interest.

A short description of data set [10]: AUC (0 to infinity) in Sprague-Dawley rat at 2.5 mg/kg, po. It counts as ADME, organism-based. More on the design: dose 2.5 mg/kg, time infinity, route oral. Conditions: in vivo.
Data set [11] is described as follows: Thermodynamic solubility of the compound in fasted state simulated intestinal […] after 2 to 5 days by UV-HPLC analysis. It counts as physicochemical. The following applies: read-out: Therm_solubility.
Data set [12] deals with T3, PXR (NR1I2). Nature of the data set: […] at PXR LBD (unknown origin) expressed in HEK293 cells […] at 1 uM after 16 hrs by luciferase reporter gene assay relative to rifampicin. It is filed as ADME, cell-based. The following applies: HEK293 cells expressing PXR LBD, read-out: Efficacy.
The next data set has as its system Rattus norvegicus. Nature of the data set: AUC (0 to infinity) in Sprague-Dawley rat at 0.5 mg/kg, iv. Also on record: dose 0.5 mg/kg, route intravenous, time infinity. It is filed as ADME, organism-based. Conditions: in vivo.
The nature of data set [13]: Oral bioavailability in Sprague-Dawley rat at 2.5 mg/kg. It counts as ADME, organism-based. Conditions: in vivo.
The nature of data set [14]: Tmax in Sprague-Dawley rat at 2.5 mg/kg, po. It is filed as ADME, organism-based. The following applies: in vivo.
Data set [15] can be described thus: Terminal half life in Sprague-Dawley rat at 2.5 mg/kg, po. Conditions: in vivo, read-out: beta t1/2 (converted). It is filed as ADME, organism-based.
Data set [16] can be described thus: Glutathione reactivity assessed as GSH adduct formation. It counts as physicochemical.

The structures appear in SMILES notation. Converted amounts (≈) assume the structure as drawn. Where only a bound is given, the exact number is not on record here.

Turning to `CC(C)(C)NS(=O)(=O)c1ccc(-c2sc(C(=O)NCCN3CCOCC3)nc2CC2CCCCC2)c2ccccc12`, the INH at Cytochrome P450 1A2 was more than 10 µM; at Cytochrome P450 2C19 it was 1.1 µM; on Cytochrome P450 2C9, 0.4 µM; at Cytochrome P450 3A4, 7.1 µM; at Cytochrome P450 2C8, 2.8 µM; at Cytochrome P450 2D6 it was 6.2 µM. In addition, the “inhibition (INH)” value in [1] is on record as “Not Active”. Further, the half-life is 5.1 min in data set [2] and less than 4 min in data set [4]. For the same molecule, in [3], the solubility thermodynamic at 10000 µM is less than 4 µM.
The molecule `CC(C)(C)NS(=O)(=O)c1ncc(-c2sc(C(=O)N[C@H]3C[C@H](C(=O)O)C3)nc2CC2CCCCC2)c2ccccc12` gave a C0 in data set [5] of 2.8 µg/mL. The INH on Cytochrome P450 1A2, at Cytochrome P450 2C19, on Cytochrome P450 2C9, at Cytochrome P450 3A4, at Cytochrome P450 2C8 and at Cytochrome P450 2D6 was more than 10 µM each time. In [6], the Cmax turned out to be 0.052 µg/mL. The half-life in data set [7] is 18 min; in [2] it was 61 min; in [4], 77 min; in [15], 150 min. Moreover, the Vd in data set [8] was found to be 1.1 L/kg. Also, at PXR (NR1I2) [9], the Emax at 16 h, 10 µM was 102%. The solubility thermodynamic at 10000 µM in [3] is 13 µM (≈ 7.6 µg/mL). Further, the AUC(0-inf) in data set [10] stood at 0.087 µg·h/mL. Also, the solubility thermodynamic in [11] is 382 µM (≈ 223 µg/mL). Also, the Emax at 16 h, 1 µM on PXR (NR1I2) [12] amounted to 18%. The AUC in the data set on Rattus norvegicus is 0.232 µg·h/mL. The same molecule displayed a bioavailability in [13] of 7.5%. Besides, the Tmax in data set [14] was found to be 24 min.
With `C[C@H](NS(=O)(=O)c1ccc(-c2sc(C(=O)N[C@H]3C[C@H](C(=O)O)C3)nc2CC2CCCCC2)c2ccccc12)C(F)(F)F`, the Stability entry in [16] is recorded as “Stable”.

As a reminder, the Cmax is the peak of the concentration-time curve. For orientation: AUC(0-inf) means the area under the concentration-time curve extrapolated to infinity. For orientation: AUC means the area under the concentration-time curve, a measure of exposure. A high value points to high exposure. What is called bioavailability is dose-corrected exposure relative to a reference, in per cent. A higher bioavailability goes with good availability. As a reminder, the Tmax is the time at which the peak concentration occurs.
